Laboratory results from patent US8247211B2, “Glycopeptide antibiotics” (American Cyanamid Company, priority 2001, dated 2012).

Columns and labels:
Assay in all cases: In vitro antibacterial evaluation: minimum inhibitory concentration (MIC), broth dilution method
Assay type in all cases: cell-based
Escherichia coli = details: 18 hours at 35° C.
Protocol: (§1) The minimum inhibitory concentration (MIC), the lowest concentration of the antibiotic which inhibits growth of the test organism, is determined by the broth dilution method using Muller-Hinton II […] (Baltimore Biological Laboratories) following the recommendations of the National Committee for Clinical Laboratory Standards [Methods for dilution antimicrobial susceptibility tests for bacteria that grow aerobically, approved standard M7-A2, National Committee for Clinical Laboratory Standards, Villanova, Pa].
(§2) An inoculum level of 5×10^5 CFU/mL, and a range of antibiotic concentrations (64-0.06 μg/mL) is used. […] The test organisms include a spectrum of Gram-positive bacteria comprised of Staphylococcus sp., Streptococcus sp. and Enterococcus sp. These organisms include recent clinical isolates that are resistant to methicillin, penicillin and/or vancomycin.

Enterococcus sp. = details: 18 hours at 35° C.
Protocol: as §1, §2

Staphylococcus sp. = details: for MIC Staphylococcus aureus-SMITH (GC 4543): strain GC 4543; for MIC Staphylococcus haemolyticus (GC 4546): strain GC 4546; for MIC Coagulase Negative Staphylococcus (GC 4547): strain GC 4547; for MIC Coagulase Negative Staphylococcus (GC 4548): strain GC 4548; for MIC Coagulase Negative Staphylococcus (GC 4549): strain GC 4549; for MIC Coagulase Negative Staphylococcus (GC 4551): strain GC 4551; for MIC Coagulase Negative Staphylococcus (GC 6257): strain GC 6257; for MIC Staphylococcus aureus (ATCC 29213): strain ATCC 29213; for MIC Staphylococcus aureus (GC 1131): strain GC 1131; for MIC Staphylococcus aureus (GC 3051): strain GC 3051; for MIC Staphylococcus aureus (GC 3053): strain GC 3053; for MIC Staphylococcus aureus (GC 4541): strain GC 4541; for MIC Staphylococcus aureus (GC 4542): strain GC 4542; for MIC Staphylococcus aureus (GC 4544): strain GC 4544; for MIC Staphylococcus aureus (GC 4545): strain GC 4545
Protocol: as §1, §2

Streptococcus sp. = details: 18 hours at 35° C.
Protocol: as §1, §2

[1] = broth dilution, inoculum 5×10^5 CFU/mL
[2] = broth dilution, 18 hours at 35° C.

Substance: Cyclo[glycyl-4-chloro-β-methylphenylalanyl-O-[4-O-(4,6-O-cyclopentylidenehexopyranosyl)-hexopyranosyl]tyrosyl-3-(2-iminoimidazolidin-4-yl)seryl-3-(3-hexopyranosyl-2-iminoimidazolidin-4-yl)serylseryl] [Example 202]
- MIC Escherichia coli (ATCC 25922) (Escherichia coli; Escherichia coli (ATCC 25922)): 32 µg/mL
- MIC Escherichia coli (GC 4559) (Escherichia coli; Escherichia coli (GC 4559)): 16 µg/mL
- MIC Escherichia coli (GC 4560) (Escherichia coli; Escherichia coli (GC 4560)): 2 µg/mL
- MIC Enterococcus avium (GC 4558) (Enterococcus sp.; Enterococcus avium (GC 4558)): 32 µg/mL
- MIC Enterococcus faecalis (ATCC 29212) (Enterococcus sp.; Enterococcus faecalis (ATCC 29212)): 32 µg/mL
- MIC Enterococcus faecalis (GC 2242) (Enterococcus sp.; Enterococcus faecalis (GC 2242)): 16 µg/mL
- MIC Enterococcus faecalis (GC 2691) (Enterococcus sp.; Enterococcus faecalis (GC 2691)): 16 µg/mL
- MIC Enterococcus faecalis (GC 3059) (Enterococcus sp.; Enterococcus faecalis (GC 3059)): 64 µg/mL
- MIC Enterococcus faecalis (GC 4552) (Enterococcus sp.; Enterococcus faecalis (GC 4552)): 32 µg/mL
- MIC Enterococcus faecalis (GC 4553) (Enterococcus sp.; Enterococcus faecalis (GC 4553)): 32 µg/mL
- MIC Enterococcus faecalis (GC 4554) (Enterococcus sp.; Enterococcus faecalis (GC 4554)): 32 µg/mL
- MIC Enterococcus faecalis (GC 6189) (Enterococcus sp.; Enterococcus faecalis (GC 6189)): 16 µg/mL
- MIC Enterococcus faecium (GC 2243) (Enterococcus sp.; Enterococcus faecium (GC 2243)): 32 µg/mL
- MIC Enterococcus faecium (GC 4556) (Enterococcus sp.; Enterococcus faecium (GC 4556)): 16 µg/mL
- MIC Enterococcus faecium (GC 4557) (Enterococcus sp.; Enterococcus faecium (GC 4557)): 4 µg/mL
- MIC Enterococcus avium (GC 4558) (Enterococcus sp.; [1]): 32 µg/mL
- MIC Enterococcus faecalis (ATCC 29212) (Enterococcus sp.; [1]): 32 µg/mL
- MIC Enterococcus faecalis (GC 2242) (Enterococcus sp.; [1]): 16 µg/mL
- MIC Enterococcus faecalis (GC 2691) (Enterococcus sp.; [1]): 16 µg/mL
- MIC Enterococcus faecalis (GC 3059) (Enterococcus sp.; [1]): 64 µg/mL
- MIC Enterococcus faecalis (GC 4552) (Enterococcus sp.; [1]): 32 µg/mL
- MIC Enterococcus faecalis (GC 4553) (Enterococcus sp.; [1]): 32 µg/mL
- MIC Enterococcus faecalis (GC 4554) (Enterococcus sp.; [1]): 32 µg/mL
- MIC Enterococcus faecalis (GC 6189) (Enterococcus sp.; [1]): 16 µg/mL
- MIC Enterococcus faecium (GC 2243) (Enterococcus sp.; [1]): 32 µg/mL
- MIC Enterococcus faecium (GC 4556) (Enterococcus sp.; [1]): 16 µg/mL
- MIC Enterococcus faecium (GC 4557) (Enterococcus sp.; [1]): 4 µg/mL
- MIC Staphylococcus aureus-SMITH (GC 4543) (Staphylococcus sp.; [2]): 4 µg/mL
- MIC Staphylococcus haemolyticus (GC 4546) (Staphylococcus sp.; [2]): 2 µg/mL
- MIC Coagulase Negative Staphylococcus (GC 4547) (Staphylococcus sp.; [2]): 2 µg/mL
- MIC Coagulase Negative Staphylococcus (GC 4548) (Staphylococcus sp.; [2]): 2 µg/mL
- MIC Coagulase Negative Staphylococcus (GC 4549) (Staphylococcus sp.; [2]): 4 µg/mL
- MIC Coagulase Negative Staphylococcus (GC 4551) (Staphylococcus sp.; [2]): 4 µg/mL
- MIC Coagulase Negative Staphylococcus (GC 6257) (Staphylococcus sp.; [2]): 2 µg/mL
- MIC Staphylococcus aureus (ATCC 29213) (Staphylococcus sp.): 4 µg/mL
- MIC Staphylococcus aureus (ATCC 29213) (Staphylococcus sp.; [2]): 4 µg/mL
- MIC Staphylococcus aureus (GC 1131) (Staphylococcus sp.): 4 µg/mL
- MIC Staphylococcus aureus (GC 1131) (Staphylococcus sp.; [2]): 4 µg/mL
- MIC Staphylococcus aureus (GC 3051) (Staphylococcus sp.): 4 µg/mL
- MIC Staphylococcus aureus (GC 3051) (Staphylococcus sp.; [2]): 4 µg/mL
- MIC Staphylococcus aureus (GC 3053) (Staphylococcus sp.): 8 µg/mL
- MIC Staphylococcus aureus (GC 3053) (Staphylococcus sp.; [2]): 8 µg/mL
- MIC Staphylococcus aureus (GC 4541) (Staphylococcus sp.): 4 µg/mL
- MIC Staphylococcus aureus (GC 4541) (Staphylococcus sp.; [2]): 4 µg/mL
- MIC Staphylococcus aureus (GC 4542) (Staphylococcus sp.): 4 µg/mL
- MIC Staphylococcus aureus (GC 4542) (Staphylococcus sp.; [2]): 4 µg/mL
- MIC Staphylococcus aureus-SMITH (GC 4543) (Staphylococcus sp.): 4 µg/mL
- MIC Staphylococcus aureus (GC 4544) (Staphylococcus sp.): 4 µg/mL
- MIC Staphylococcus aureus (GC 4544) (Staphylococcus sp.; [2]): 4 µg/mL
- MIC Staphylococcus aureus (GC 4545) (Staphylococcus sp.): 4 µg/mL
- MIC Staphylococcus aureus (GC 4545) (Staphylococcus sp.; [2]): 4 µg/mL
- MIC Staphylococcus haemolyticus (GC 4546) (Staphylococcus sp.): 2 µg/mL
- MIC Coagulase Negative Staphylococcus (GC 4547) (Staphylococcus sp.): 2 µg/mL
- MIC Coagulase Negative Staphylococcus (GC 4548) (Staphylococcus sp.): 2 µg/mL
- MIC Coagulase Negative Staphylococcus (GC 4549) (Staphylococcus sp.): 4 µg/mL
- MIC Coagulase Negative Staphylococcus (GC 4551) (Staphylococcus sp.): 4 µg/mL
- MIC Coagulase Negative Staphylococcus (GC 6257) (Staphylococcus sp.): 2 µg/mL
- MIC Streptococcus agalactiae (GC 4564) (Streptococcus sp.; Streptococcus agalactiae (GC 4564)): 2 µg/mL
- MIC Streptococcus pneumoniae (ATCC 6301) (Streptococcus sp.; Streptococcus pneumoniae (ATCC 6301)): <0.5 µg/mL
- MIC Streptococcus pneumoniae (GC 1894) (Streptococcus sp.; Streptococcus pneumoniae (GC 1894)): <0.5 µg/mL
- MIC Streptococcus pneumoniae (GC 4565) (Streptococcus sp.; Streptococcus pneumoniae (GC 4565)): 8 µg/mL
- MIC Streptococcus pyogenes (GC 4563) (Streptococcus sp.; Streptococcus pyogenes (GC 4563)): 1 µg/mL
- MIC Streptococcus agalactiae (GC 4564) (Streptococcus sp.; [1]): 2 µg/mL
- MIC Streptococcus pneumoniae (ATCC 6301) (Streptococcus sp.; [1]): <0.5 µg/mL
- MIC Streptococcus pneumoniae (GC 1894) (Streptococcus sp.; [1]): <0.5 µg/mL
- MIC Streptococcus pneumoniae (GC 4565) (Streptococcus sp.; [1]): 8 µg/mL
- MIC Streptococcus pyogenes (GC 4563) (Streptococcus sp.; [1]): 1 µg/mL
